From US12193465B2, “Materials and methods for extending shelf-life of foods” (JP Laboratories, Inc., priority 2021, dated 2025)
Several values for one entry are separate records, joined by “and”; a condition that tells them apart may be missing. Equal entries are not always repeated. Entries after “also recorded” stand apart in the source; their conditions may differ.

How the values were obtained:
fungus = experiment: Fungus growth on treated foods stored in closed containers at room temperature; settings: for Spoilage Time - Sample: Fungus;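 on Effectiveness on ginger: compared with untreated control ginger in closed containers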
From the text: (§1) Most of the foods changed color or texture.
Glass jars and bottles were also used. The containers were snap-closed or with a lid.
(§2) These bags were sealed with a heat sealer.
(§3) The assembly was shaken periodically.

[1] = Color change / browning / yellowing of foods (keeping produce green longer); settings: for Change in color and softness: after 70 days
Experimental: All studies were conducted at a room temperature of about 25° C. To determine the effectiveness of a shelf-life extender, a control sample which was untreated with any shelf-life extenders, was tested identical to the test samples. […] All studies in those Examples of Tables 1-6 were conducted in closed plastic or glass containers. Containers, such as plastic containers, without or with lids having holes can be used if it is advantageous to let excess moisture escape or to prevent condensation of moisture released by some produce.
Food exposed to preservatives or by a sachet was placed in typically polystyrene or acrylic containers depending upon the size and number of food items. Glass jars and bottles were also used. The containers were snap-closed or with a lid. The containers were purchased mainly from Amazon or Webstaurant.com store. When needed, plastic containers with holes or without lids were used.
For controlled exposure and a constant supply of a preservative to foods, sachets containing one or more drops of preservatives were used. Sachets were made by placing an appropriate amount of a preservative in a plastic bag containing a piece of paper and heat sealing the bag. The sachet bag materials used were Tyvek® for solid preservative, polyethylene, polyester and high barrier multilayer films were used for liquid preservatives. These bags were sealed with a heat sealer. The sachet was typically applied on one side of the container containing food.
A piece of paper napkin was taped inside a 100 microns thick polyethylene or polyester Ziploc bag. The size of the bag varied from ˜20 cm×30 cm to ˜60 cm×90 cm depended on the sample with sandwich bags up to gallon bags being exemplary. The paper napkin was wetted with 0.1-0.5 ml of a preservative or a mixture of preservatives. A tray of aluminum, stainless steel or glass containing the foods was placed inside the plastic (polyethylene, polyester and multilayer-laminated) bag and almost closed by locking the Ziploc. Air was blown with an air blower from the unclosed end until the bag was fully blown and then quickly closed tightly by locking the remaining Ziploc. If a preservative was a sublimable solid, it was placed in a petri dish and then placed inside the bag in the tray before blowing air. The exposure time was varied from five minutes to a day depending upon the food. […] The assembly was shaken periodically. After the predetermined time, the tray containing produce was removed from the bag, allowed to de-gas for 10-30 minutes in air and the produce was then placed in an appropriately sized container. Glass and stainless steel containers with lids were also often used.
A solution of one or more preservatives was prepared in a large (e.g., 2-10 liter) glass beaker or a jar. A sack containing the food was prepared by placing the food in a plastic mesh bag. The sack was placed in the solution of the preservative. A smaller glass beaker containing proper amount of water was place over the package to keep the sack soaked in the solution of the preservative during the treatment. The solution was stirred either with a plastic spatula or with a magnet over a magnetic stirrer. After treatment, the mesh sack was removed, the produce was washed in a tray with running water, strained and air dried at 30° C. in an air blowing oven for about 5-10 minutes, while shaking the tray or turning the food periodically followed by placing the sample in an appropriate container.
The food was placed in mesh trays and sprayed with an aqueous solution (1-10%) of a preservative while shaking the tray or turning the food. The solution was allowed to drain from the tray and the food was air dried in an air blowing oven at 30° C. for about 5-10 minutes, while shaking the tray or turning food periodically followed by placing the sample in an appropriate container.

[2] = Curdling / cream / solidification of milk
From the text: as §1

[3] = Odor and softening/mushiness of pre-soaked grains; settings: Odor, White rice, control 5 days
From the text: as §1, §2

[4] = tested on: parval, methi, coriander, radish, guar; experiment: Shriveling / wilting / dehydration / becoming wet of produce
From the text: as §1, §3

[5] = Gas formation (gassed dome) of fresh juice; settings: Example 65, Orange juice, 0.02 g, control 4 days
From the text: as §1

yeast = experiment: Rising of dough; settings: Example 74; Freshly prepared dough for bread; 1% in 100 g flour
From the text: On a control sample of freshly prepared dough, rising could continuously be observed throughout the day.

[6] = Color loss of meat and fish; settings: meat and fish
From the text: as §1, §2

C=CCN=C=S [AI, allyl isothiocyanate]
Fungus growth (fungus; Example 12, Paneer (Indian cottage cheese), sachet): > 10 days
Spoilage Time - Sample (fungus; Example 20, Apple juice, 0.02 g, control 7 days): 13 days
Spoilage Time - Sample (fungus; Example 21, Beet juice, 0.02 g, control 7 days): 13 days
Spoilage Time - Sample (fungus; Example 22, Blueberries, 16 hrs P-E, control 3 days): 24 days
Spoilage Time - Sample (fungus; Example 25, Broccoli, 0.25 hr P-E, control 6 days): 9 days
Spoilage Time - Sample (fungus; Example 26, Broccoli, Sachet, control 6 days): 9 days
Spoilage Time - Sample (fungus; Example 27, Broccoli, 2 hrs P-E, control 5 days): 16 days
Spoilage Time - Sample (fungus; Example 28, Carrot juice, 0.02 g, control 12 days): 13 days
Spoilage Time - Sample (fungus; Example 30, Chickpeas, Sachet, control 7 days): 9+ days
Spoilage Time - Sample (fungus; Example 33, Fresh, raw, shelled undried peanuts, Sachet, control 18 days): 46 days
Spoilage Time - Sample (fungus; Example 33, Fresh, raw, shelled undried peanuts, Sachet, control 18 days, listed as allyl isothiocyanate): significantly delayed or prevented
Spoilage Time - Sample (fungus; Example 35, 5.3% Gelatin, 175 bloom in water, Sachet, control 9 days): 47 days
Spoilage Time - Sample (fungus; Example 37, 4% Guar Gum in water, Sachet, control 5 days): 47 days
Spoilage Time - Sample (fungus; Example 39, Guar beans, 2 hrs P-E, control 6 days): 17 days
Spoilage Time - Sample (fungus; Example 40, Honeydew juice, 0.02 g, control 12 days): 30 days
Spoilage Time - Sample (fungus; Example 42, Lychee, 0.5 hr P-E, control 7 days): 11 days
Spoilage Time - Sample (fungus; Example 44, Mixed Legumes, 64 hrs P-E, 6 hrs soaking, control 11 days): 17 days
Spoilage Time - Sample (fungus; Example 45, Monterey cheese, Sachet, control 7 days): 10+ days
Spoilage Time - Sample (fungus; Example 45, Monterey cheese, Sachet, control 7 days, listed as allyl isothiocyanate): > 10 days
Spoilage Time - Sample (fungus; Example 47, Pomegranate juice, 0.02 g, control 7 days): 13 days
Spoilage Time - Sample (fungus; Example 48, Puri (Indian fried bread), 16 hrs P-E, control 5 days): 70+ days
Spoilage Time - Sample (fungus; Example 49, Raspberry, 1 hr P-E, control 5 days): 9 days
Spoilage Time - Sample (fungus; Example 50, Raspberry, 0.33 hr P-E, control 5 days): 31 days
Spoilage Time - Sample (fungus; Example 51, Raw milk cheddar cheese, 1 hr P-E & Sachet, control 6 days): 35 days
Spoilage Time - Sample (fungus; Example 53, Rotala (Indian millet bread), 16 hrs P-E, control 5 days): 70+ days
Spoilage Time - Sample (fungus; Example 56, 26.7% Starch solution in water, 0.25 ml of 0.42% solution, control 5 days): 47 days
Spoilage Time - Sample (fungus; Example 57, 26.7% Starch solution in water, Sachet, control 5 days): 47 days
Spoilage Time - Sample (fungus; Example 58, Strawberries, 5 hrs P-E, control 2 days): 15 days
Spoilage Time - Sample (fungus; Example 59, Tindora, 2 hrs P-E, control 6 days): 40 days
Spoilage Time - Sample (fungus; Example 60, Tofu, Sachet, control 6 days): 9+ days
Spoilage Time - Sample (fungus; Example 60, Tofu, Sachet, control 6 days, listed as allyl isothiocyanate): > 9 days
Spoilage Time - Sample (fungus; Example 62, Unshelled peanuts, 5 ml of 0.42% solution, control 5 days): 8 days
Spoilage Time - Sample (fungus; Example 62, Unshelled peanuts, 5 ml of 0.42% solution, control 5 days, listed as allyl isothiocyanate): either prevented or significantly delayed
Spoilage Time - Sample (fungus; Example 63, Wild Rice, 5 ml of 10% allyl isothiocyanate solution in water, control 11 days): 21 days
Spoilage Time - Sample (fungus; Example 64, Wild Rice, Sachet, control 11 days): 21 days
Spoilage Time - Sample (fungus; Example 89, Mixed Legumes, AI & Humidity, 64 hrs P-E AI, 6 hrs soaking in water, control 11 days): 17 days
Fungus growth (fungus; Indian millet bread, Indian wheat bread (roti), cheesecake, sachet or pre-exposure to vapors): either prevented or significantly delayed
Effectiveness in preventing fungus (fungus; compared with ethyl isothiocyanate): more effective
Fungus growth (fungus; fresh cold pressed carrot, red cabbage and beet juice, Examples 28, 21, 13): either prevented or significantly delayed
Fungus growth (fungus; fresh cold pressed pomegranate, blackberry, orange, red grape, apple, blueberry and honeydew juice): either prevented or significantly delayed
Shelf-life of vegetable juices (fungus; fresh, cold pressed tomatillo, lime and green cabbage juices): improved shelf-life
Effectiveness on ginger (fungus; ginger, pre-exposure and sachet method): found effective
Fungus growth (fungus; guar gum and starch, Examples 37, 56 & 57): either prevented or significantly delayed
Shelf-life of raw milk yogurt (fungus; raw milk yogurt): extended shelf-life
Fungus growth (fungus; strawberries, raspberries, blackberries and lychee): either prevented or significantly delayed
Spoilage Time - Sample ([1]; Example 11, Browning, Coriander, 0.25 hr P-E, control 11 days): significantly delayed
Spoilage Time - Sample ([1]; Example 12, Color change, Paneer (Indian cottage cheese), Sachet, control 9 days): 10+ days
Spoilage Time - Sample ([1]; Example 13, Color change, Red cabbage juice, 0.02 g, control 12 days): 13 days
Spoilage Time - Sample ([1]; Example 14, Color change, Blackberry juice, 0.02 g, control 5 days): 12 days
Spoilage Time - Sample ([1]; Example 15, Color change, Tindora, 2 hrs P-E, control 6 days): 17 days
Spoilage Time - Sample ([1]; Example 15, Color change, Tindora, 2 hrs P-E, control 6 days, listed as allyl isothiocyanate): delay of ripening and turning red from green was achieved
Green-to-yellow color change ([1]; Example 30, fresh green chickpeas, sachet, control 7 days): > 9 days
Change in color and softness ([1]; Example 48, puri): There was very little change in color and softness of puri even after 70 days. Other
Change in color and softness ([1]; Example 53, millet bread): There was very little change in color and softness of millet bread even after 70 days.
Color change from green-to-yellow ([1]; Examples 25 & 27, broccoli, vapors, control 5 days): > 16 days
Spoilage Time - Sample ([2]; Example 16, Cream, Raw cow milk, 0.07 g, control 3 days): 24 days
Spoilage Time - Sample ([2]; Example 17, Curdling, Milk (pasteurized, whole milk), 0.10 g, control 2 days): 16 days
Spoilage Time - Sample ([2]; Example 18, Curdling, Milk & Yogurt (whole milk & yogurt) mix, 0.10 g, control 2 days): 16 days
Spoilage Time - Sample ([2]; Example 18, Curdling, Milk & Yogurt (whole milk & yogurt) mix, 0.10 g, control 2 days, listed as allyl isothiocyanate): > 16 days
Spoilage Time - Sample ([2]; Example 19, Curdling, Milk (pasteurized, whole milk), 0.05 g, control 2 days): 28 days
Spoilage Time - Sample ([2]; Example 19, Curdling, Milk (pasteurized, whole milk), 0.05 g, control 2 days, listed as allyl isothiocyanate): > 28 days and > 21 days
Spoilage Time - Sample ([3]; Example 72, 5 ml of 10% allyl isothiocyanate solution in water): 21 days
Spoilage Time - Sample ([3]; Example 72, 5 ml of 10% allyl isothiocyanate solution in water, listed as allyl isothiocyanate): > 21 days
Spoilage Time - Sample ([3]; Example 73, Sachet): 21 days
Spoilage Time - Sample ([4]; Example 75, Shriveling, Parval, 0.5 hr P-E, control 4 days): 4+ days
Spoilage Time - Sample ([4]; Example 76, Shriveling, Parval, 1 hr P-E, control 4 days): 4+ days
Spoilage Time - Sample ([4]; Example 83, Wet, Methi (Indian fenugreek), 1 hr P-E, control 9 days): 30 days
Spoilage Time - Sample ([4]; Example 83, Wet, Methi (Indian fenugreek), 1 hr P-E, control 9 days, listed as allyl isothiocyanate): remained fresh and green
Crispness of treated guar ([4]; guar exposed to vapor, lost green color slightly): remained crisp
Spoilage Time - Sample [5]: 12 days
Rise of dough (yeast): did not rise; also recorded: allyl isothiocyanate is capable of killing yeast
Improvements with meat and fish [6]: demonstrated improvements
